# Measured values published in patent publication US12226523B2, “Method for preparing self-assembled nanoparticle releasing soluble microneedle structure” (RESEARCH & BUSINESS FOUNDATION SUNGKYUNKWAN UNIVERSITY, priority 2016, dated 2025).
# System: cells (HCT-116)
# Assay: Intracellular delivery of nanoparticles produced from soluble microneedles (confocal fluorescence microscope)
# Assay type: cell-based
# Conditions: HCT-116 cells, 4 hours after treatment
# Protocol: To this end, soluble microneedles in which a hydrophobic fluorescent material, DiD (Invitrogen, Carlsbad, CA, USA), used in cell membrane staining, was loaded were manufactured according to the method described in Example 1. Afterward, cells (HCT-116) were treated with a solution in which the microneedles were dissolved according to the method of Example 2, 4 hours later, intracellular delivery of nanoparticles produced from the soluble microneedles was observed using a confocal fluorescence microscope.
smiles,measurement,value
"CCCCCCCCCCCCCCCCCCN1C(=CC=CC=CC2=[N+](CCCCCCCCCCCCCCCCCC)c3ccccc3C2(C)C)C(C)(C)c2ccccc21.[I-] [DiD, 1,1′-dioctadecyl-3,3,3′,3′-tetramethylindodicarbocyanine iodide]",cellular localisation of the hydrophobic fluorescent material DiD,stained the cell membrane
